Source: patent US8927570B2, “1-naphthyl-or 1-dihydroacenaphthenyl-pyrido[B]indoles and uses thereof in treating cancers” (priority 2009, dated 2015)

Each molecule was assayed on HPAC pancreatic cancer cell line (assay: In vitro antiproliferative activity, HPAC pancreatic cancer cell line). Conditions: Homo sapiens, Table 2.
Format: cell-based
Procedure: (§1) Substituted β-carboline compounds 4 to 38 were tested for antiproliferative activity against HCT116 colon cancer cells and HPAC, Mia-PaCa2 and Panc-1 pancreatic cancer cell lines. Table 1 lists the IC50 values for the substituted β-carbolines.
(§2) Substituted β-carbolines and analog compounds 39 to 57 were tested for antiproliferative activity against HPAC, Mia-PaCa2 and Panc-1 pancreatic cancer cell lines and MCF-7 and MDA-MB-468 breast cancer cell lines. Table 2 lists the IC50 values for the substituted β-carbolines and analogs thereof.

Point of comparison: `CNS(=O)(=O)Cc1ccc2[nH]c3c(-c4cccc5ccccc45)nccc3c2c1` [Compound 42, N-methyl-1-(1-(naphthalen-1-yl)-9H-pyrido[3,4-b]indol-6-yl)methanesulfonamide], IC50 3.83 µM. Against it:
- COc1ccc2[nH]c3c(-c4cccc5c(F)cccc45)nccc3c2c1 [Compound 44, 1-(5-fluoronaphthalen-1-yl)-6-methoxy-9H-pyrido[3,4-b]indole] — 1.6-fold lower, 2.37 µM
- N#Cc1ccc2[nH]c3c(-c4cccc5ccccc45)nccc3c2c1 [Compound 53, 1-(Naphthalen-1-yl)-9H-pyrido[3,4-b]indole-6-carbonitrile] — 13-fold higher, 50 µM
- c1ccc2c(-c3nccc4c3oc3ccccc34)cccc2c1 [Compound 49, 1-(naphthalen-1-yl)benzofuro[2,3-c]pyridine] — higher, > 50 µM
- FC(F)(F)Oc1ccc2[nH]c3c(-c4cccc5ccccc45)nccc3c2c1 [Compound 52, 1-(Naphthalen-1-yl)-6-(trifluoromethoxy)-9H-pyrido[3,4-b]indole] — 9.3-fold higher, 35.5 µM
- Cc1ccc2[nH]c3c(-c4cccc5ccccc45)nccc3c2c1 [Compound 51, 6-Methyl-1-(naphthalen-1-yl)-9H-pyrido[3,4-b]indole] — higher, > 50 µM
- COc1ccc2[nH]c3c(-c4cccc5ccccc45)ncc(-c4ccccc4)c3c2c1 [Compound 41, 6-methoxy-1-(naphthalen-1-yl)-4-phenyl-9H-pyrido[3,4-b]indole] — 2-fold higher, 7.72 µM
- Clc1ccc2sc3c(-c4cccc5ccccc45)nccc3c2c1 [Compound 48, 6-Chloro-1-(naphthalen-1-yl)benzo[4,5]thieno[2,3-c]pyridine] — 13-fold higher, 50 µM
- c1ccc2c(-c3nccc4c3sc3ccccc34)cccc2c1 [Compound 50, 1-(Naphthalen-1-yl)benzo[4,5]thieno[2,3-c]pyridine] — higher, > 50 µM
- Brc1ccc2[nH]c3c(-c4cccc5ccccc45)nccc3c2c1 [Compound 54, 6-Bromo-1-(naphthalen-1-yl)-9H-pyrido[3,4-b]indole] — 2.8-fold higher, 10.9 µM

Same assay, conditions: Table 2

“1-(1,2-Dihydroacenaphth alen-5-yl)-6-methoxy-9H-pyrido[3,4-b]indole [Compound 47]” showed an IC50 of 4.79 µM.

The molecules below were run on Mia-PaCa2 pancreatic cancer cell line (assay: In vitro antiproliferative activity, Mia-PaCa2 pancreatic cancer cell line). Conditions: Homo sapiens, MIA PaCa-2, Table 2.
Format: cell-based
Procedure: as §1, §2

Point of comparison: `CNS(=O)(=O)Cc1ccc2[nH]c3c(-c4cccc5ccccc45)nccc3c2c1` [Compound 42, N-methyl-1-(1-(naphthalen-1-yl)-9H-pyrido[3,4-b]indol-6-yl)methanesulfonamide], IC50 0.58 µM. Against it:
- COc1ccc2[nH]c3c(-c4cccc5c(F)cccc45)nccc3c2c1 [Compound 44, 1-(5-fluoronaphthalen-1-yl)-6-methoxy-9H-pyrido[3,4-b]indole] — 1.8-fold lower, 0.33 µM
- N#Cc1ccc2[nH]c3c(-c4cccc5ccccc45)nccc3c2c1 [Compound 53, 1-(Naphthalen-1-yl)-9H-pyrido[3,4-b]indole-6-carbonitrile] — 70-fold higher, 40.4 µM
- c1ccc2c(-c3nccc4c3oc3ccccc34)cccc2c1 [Compound 49, 1-(naphthalen-1-yl)benzofuro[2,3-c]pyridine] — 58-fold higher, 33.6 µM
- FC(F)(F)Oc1ccc2[nH]c3c(-c4cccc5ccccc45)nccc3c2c1 [Compound 52, 1-(Naphthalen-1-yl)-6-(trifluoromethoxy)-9H-pyrido[3,4-b]indole] — 15-fold higher, 8.63 µM
- Cc1ccc2[nH]c3c(-c4cccc5ccccc45)nccc3c2c1 [Compound 51, 6-Methyl-1-(naphthalen-1-yl)-9H-pyrido[3,4-b]indole] — 23-fold higher, 13.1 µM
- COc1ccc2[nH]c3c(-c4cccc5ccccc45)ncc(-c4ccccc4)c3c2c1 [Compound 41, 6-methoxy-1-(naphthalen-1-yl)-4-phenyl-9H-pyrido[3,4-b]indole] — 6.3-fold higher, 3.63 µM
- Clc1ccc2sc3c(-c4cccc5ccccc45)nccc3c2c1 [Compound 48, 6-Chloro-1-(naphthalen-1-yl)benzo[4,5]thieno[2,3-c]pyridine] — 23-fold higher, 13.5 µM
- c1ccc2c(-c3nccc4c3sc3ccccc34)cccc2c1 [Compound 50, 1-(Naphthalen-1-yl)benzo[4,5]thieno[2,3-c]pyridine] — higher, > 50 µM
- Brc1ccc2[nH]c3c(-c4cccc5ccccc45)nccc3c2c1 [Compound 54, 6-Bromo-1-(naphthalen-1-yl)-9H-pyrido[3,4-b]indole] — 45-fold higher, 26.2 µM

Same assay, conditions: Table 2

“1-(1,2-Dihydroacenaphth alen-5-yl)-6-methoxy-9H-pyrido[3,4-b]indole [Compound 47]” gave an IC50 of 2.95 µM.

Each molecule was assayed on Panc-1 pancreatic cancer cell line (assay: In vitro antiproliferative activity, Panc-1 pancreatic cancer cell line). Conditions: Homo sapiens, Table 2.
Format: cell-based, human
Procedure: as §2

Point of comparison: `Brc1ccc2[nH]c3c(-c4cccc5ccccc45)nccc3c2c1` [Compound 54, 6-Bromo-1-(naphthalen-1-yl)-9H-pyrido[3,4-b]indole], IC50 30.3 µM. Against it:
- COc1ccc2[nH]c3c(-c4cccc5c(F)cccc45)nccc3c2c1 [Compound 44, 1-(5-fluoronaphthalen-1-yl)-6-methoxy-9H-pyrido[3,4-b]indole] — 12-fold lower, 2.56 µM
- CNS(=O)(=O)Cc1ccc2[nH]c3c(-c4cccc5ccccc45)nccc3c2c1 [Compound 42, N-methyl-1-(1-(naphthalen-1-yl)-9H-pyrido[3,4-b]indol-6-yl)methanesulfonamide] — 5-fold lower, 6.11 µM
- N#Cc1ccc2[nH]c3c(-c4cccc5ccccc45)nccc3c2c1 [Compound 53, 1-(Naphthalen-1-yl)-9H-pyrido[3,4-b]indole-6-carbonitrile] — higher, > 50 µM
- c1ccc2c(-c3nccc4c3oc3ccccc34)cccc2c1 [Compound 49, 1-(naphthalen-1-yl)benzofuro[2,3-c]pyridine] — higher, > 50 µM
- FC(F)(F)Oc1ccc2[nH]c3c(-c4cccc5ccccc45)nccc3c2c1 [Compound 52, 1-(Naphthalen-1-yl)-6-(trifluoromethoxy)-9H-pyrido[3,4-b]indole] — higher, > 50 µM
- Cc1ccc2[nH]c3c(-c4cccc5ccccc45)nccc3c2c1 [Compound 51, 6-Methyl-1-(naphthalen-1-yl)-9H-pyrido[3,4-b]indole] — higher, > 50 µM
- COc1ccc2[nH]c3c(-c4cccc5ccccc45)ncc(-c4ccccc4)c3c2c1 [Compound 41, 6-methoxy-1-(naphthalen-1-yl)-4-phenyl-9H-pyrido[3,4-b]indole] — not separable, > 10 µM
- Clc1ccc2sc3c(-c4cccc5ccccc45)nccc3c2c1 [Compound 48, 6-Chloro-1-(naphthalen-1-yl)benzo[4,5]thieno[2,3-c]pyridine] — higher, > 50 µM
- c1ccc2c(-c3nccc4c3sc3ccccc34)cccc2c1 [Compound 50, 1-(Naphthalen-1-yl)benzo[4,5]thieno[2,3-c]pyridine] — higher, > 50 µM

Same assay, conditions: Table 2

Molecule “1-(1,2-Dihydroacenaphth alen-5-yl)-6-methoxy-9H-pyrido[3,4-b]indole [Compound 47]” has an IC50 greater than 50 µM.

Each molecule was assayed on MCF-7 breast cancer cell line (assay: In vitro antiproliferative activity, MCF-7 breast cancer cell line). Conditions: Homo sapiens, MCF7, Table 2.
Format: cell-based, human
Procedure: as §2

Point of comparison: `Cc1ccc2[nH]c3c(-c4cccc5ccccc45)nccc3c2c1` [Compound 51, 6-Methyl-1-(naphthalen-1-yl)-9H-pyrido[3,4-b]indole], IC50 6.78 µM. Against it:
- COc1ccc2[nH]c3c(-c4cccc5c(F)cccc45)nccc3c2c1 [Compound 44, 1-(5-fluoronaphthalen-1-yl)-6-methoxy-9H-pyrido[3,4-b]indole] — within 1.5-fold, 6.6 µM
- CNS(=O)(=O)Cc1ccc2[nH]c3c(-c4cccc5ccccc45)nccc3c2c1 [Compound 42, N-methyl-1-(1-(naphthalen-1-yl)-9H-pyrido[3,4-b]indol-6-yl)methanesulfonamide] — 3.3-fold lower, 2.04 µM
- N#Cc1ccc2[nH]c3c(-c4cccc5ccccc45)nccc3c2c1 [Compound 53, 1-(Naphthalen-1-yl)-9H-pyrido[3,4-b]indole-6-carbonitrile] — higher, > 50 µM
- c1ccc2c(-c3nccc4c3oc3ccccc34)cccc2c1 [Compound 49, 1-(naphthalen-1-yl)benzofuro[2,3-c]pyridine] — higher, > 50 µM
- FC(F)(F)Oc1ccc2[nH]c3c(-c4cccc5ccccc45)nccc3c2c1 [Compound 52, 1-(Naphthalen-1-yl)-6-(trifluoromethoxy)-9H-pyrido[3,4-b]indole] — within 1.5-fold, 7.61 µM
- COc1ccc2[nH]c3c(-c4cccc5ccccc45)ncc(-c4ccccc4)c3c2c1 [Compound 41, 6-methoxy-1-(naphthalen-1-yl)-4-phenyl-9H-pyrido[3,4-b]indole] — higher, > 10 µM
- Clc1ccc2sc3c(-c4cccc5ccccc45)nccc3c2c1 [Compound 48, 6-Chloro-1-(naphthalen-1-yl)benzo[4,5]thieno[2,3-c]pyridine] — 7.2-fold higher, 48.6 µM
- c1ccc2c(-c3nccc4c3sc3ccccc34)cccc2c1 [Compound 50, 1-(Naphthalen-1-yl)benzo[4,5]thieno[2,3-c]pyridine] — higher, > 50 µM
- Brc1ccc2[nH]c3c(-c4cccc5ccccc45)nccc3c2c1 [Compound 54, 6-Bromo-1-(naphthalen-1-yl)-9H-pyrido[3,4-b]indole] — 1.7-fold higher, 11.4 µM

Same assay, conditions: Table 2

“1-(1,2-Dihydroacenaphth alen-5-yl)-6-methoxy-9H-pyrido[3,4-b]indole [Compound 47]” showed an IC50 of 6.42 µM.

What follows are molecules tested on MDA-MB-468 breast cancer cell line (assay: In vitro antiproliferative activity, MDA-MB-468 breast cancer cell line). Conditions: Homo sapiens, Table 2.
Format: cell-based, human
Procedure: as §2

Point of comparison: `FC(F)(F)Oc1ccc2[nH]c3c(-c4cccc5ccccc45)nccc3c2c1` [Compound 52, 1-(Naphthalen-1-yl)-6-(trifluoromethoxy)-9H-pyrido[3,4-b]indole], IC50 4.99 µM. Against it:
- COc1ccc2[nH]c3c(-c4cccc5c(F)cccc45)nccc3c2c1 [Compound 44, 1-(5-fluoronaphthalen-1-yl)-6-methoxy-9H-pyrido[3,4-b]indole] — 4.2-fold lower, 1.2 µM
- CNS(=O)(=O)Cc1ccc2[nH]c3c(-c4cccc5ccccc45)nccc3c2c1 [Compound 42, N-methyl-1-(1-(naphthalen-1-yl)-9H-pyrido[3,4-b]indol-6-yl)methanesulfonamide] — 4.5-fold lower, 1.11 µM
- N#Cc1ccc2[nH]c3c(-c4cccc5ccccc45)nccc3c2c1 [Compound 53, 1-(Naphthalen-1-yl)-9H-pyrido[3,4-b]indole-6-carbonitrile] — 6.1-fold higher, 30.2 µM
- c1ccc2c(-c3nccc4c3oc3ccccc34)cccc2c1 [Compound 49, 1-(naphthalen-1-yl)benzofuro[2,3-c]pyridine] — 10-fold higher, 50 µM
- Cc1ccc2[nH]c3c(-c4cccc5ccccc45)nccc3c2c1 [Compound 51, 6-Methyl-1-(naphthalen-1-yl)-9H-pyrido[3,4-b]indole] — within 1.5-fold, 6.54 µM
- COc1ccc2[nH]c3c(-c4cccc5ccccc45)ncc(-c4ccccc4)c3c2c1 [Compound 41, 6-methoxy-1-(naphthalen-1-yl)-4-phenyl-9H-pyrido[3,4-b]indole] — higher, > 10 µM
- Clc1ccc2sc3c(-c4cccc5ccccc45)nccc3c2c1 [Compound 48, 6-Chloro-1-(naphthalen-1-yl)benzo[4,5]thieno[2,3-c]pyridine] — within 1.5-fold, 6.05 µM
- c1ccc2c(-c3nccc4c3sc3ccccc34)cccc2c1 [Compound 50, 1-(Naphthalen-1-yl)benzo[4,5]thieno[2,3-c]pyridine] — 2.9-fold higher, 14.7 µM
- Brc1ccc2[nH]c3c(-c4cccc5ccccc45)nccc3c2c1 [Compound 54, 6-Bromo-1-(naphthalen-1-yl)-9H-pyrido[3,4-b]indole] — within 1.5-fold, 5.09 µM

Same assay, conditions: Table 2

With “1-(1,2-Dihydroacenaphth alen-5-yl)-6-methoxy-9H-pyrido[3,4-b]indole [Compound 47]” the IC50 was 4.47 µM.
